The values that follow come from US8791131B2, “Imidazo[1,5]naphthyridine compounds, their pharmaceutical use and compositions” (Pfizer Inc., priority 2008, dated 2014).

The target in test [1] is PI3-Kα (Mus musculus (Mouse), UniProt P42337). The experiment in a line: PI3-Kα biochemical assay (in vitro kinase assay, fluorescence polarization).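 On all read-outs here: Insect-cell-expressed mouse p110/p85 complex converting PI(4,5)P2, product PI(3,4,5)P3 detected by displacing TAMRA-tagged PI(3,4,5)P3 from Grip1 PH domain, lower polarization means more product, room temperature.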 The following applies: for Ki: read-out: PI3Ka Ki; for PI3Ka Ki: Ki calculated from IC50, [ATP]=30 uM, Km=25 uM.
Sequence of PI3-Kα (P42337 whole entry, the tested form may be a part): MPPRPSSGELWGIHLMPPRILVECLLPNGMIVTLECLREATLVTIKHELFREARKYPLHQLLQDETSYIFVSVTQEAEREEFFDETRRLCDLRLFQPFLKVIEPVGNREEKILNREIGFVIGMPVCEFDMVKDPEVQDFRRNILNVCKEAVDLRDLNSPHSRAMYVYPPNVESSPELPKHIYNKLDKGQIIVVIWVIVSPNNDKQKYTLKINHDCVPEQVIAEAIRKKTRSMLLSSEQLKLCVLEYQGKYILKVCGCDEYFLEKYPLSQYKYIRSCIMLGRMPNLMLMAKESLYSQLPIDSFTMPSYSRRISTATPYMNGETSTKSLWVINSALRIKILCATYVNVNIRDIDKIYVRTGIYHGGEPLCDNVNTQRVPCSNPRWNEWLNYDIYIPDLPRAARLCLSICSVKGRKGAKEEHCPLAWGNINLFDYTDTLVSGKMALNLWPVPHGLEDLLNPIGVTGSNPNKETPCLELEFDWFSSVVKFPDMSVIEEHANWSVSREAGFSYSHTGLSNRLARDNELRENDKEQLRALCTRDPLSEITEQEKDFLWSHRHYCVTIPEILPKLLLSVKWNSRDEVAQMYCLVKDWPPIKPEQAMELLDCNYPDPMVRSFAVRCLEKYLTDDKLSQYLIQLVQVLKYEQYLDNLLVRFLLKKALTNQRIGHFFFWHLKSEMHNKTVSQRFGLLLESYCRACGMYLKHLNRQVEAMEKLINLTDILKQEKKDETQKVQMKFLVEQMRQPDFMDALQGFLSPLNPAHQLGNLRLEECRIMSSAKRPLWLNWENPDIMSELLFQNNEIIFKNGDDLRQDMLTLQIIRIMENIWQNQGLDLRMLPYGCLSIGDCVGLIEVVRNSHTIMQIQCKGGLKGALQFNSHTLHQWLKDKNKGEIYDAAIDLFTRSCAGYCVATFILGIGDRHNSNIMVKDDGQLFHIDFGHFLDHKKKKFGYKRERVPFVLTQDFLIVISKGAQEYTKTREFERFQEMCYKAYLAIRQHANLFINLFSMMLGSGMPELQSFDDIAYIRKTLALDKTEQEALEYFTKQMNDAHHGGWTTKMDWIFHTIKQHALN
Sequence of PI3-Kα (P26450 whole entry partner, the tested form may be a part): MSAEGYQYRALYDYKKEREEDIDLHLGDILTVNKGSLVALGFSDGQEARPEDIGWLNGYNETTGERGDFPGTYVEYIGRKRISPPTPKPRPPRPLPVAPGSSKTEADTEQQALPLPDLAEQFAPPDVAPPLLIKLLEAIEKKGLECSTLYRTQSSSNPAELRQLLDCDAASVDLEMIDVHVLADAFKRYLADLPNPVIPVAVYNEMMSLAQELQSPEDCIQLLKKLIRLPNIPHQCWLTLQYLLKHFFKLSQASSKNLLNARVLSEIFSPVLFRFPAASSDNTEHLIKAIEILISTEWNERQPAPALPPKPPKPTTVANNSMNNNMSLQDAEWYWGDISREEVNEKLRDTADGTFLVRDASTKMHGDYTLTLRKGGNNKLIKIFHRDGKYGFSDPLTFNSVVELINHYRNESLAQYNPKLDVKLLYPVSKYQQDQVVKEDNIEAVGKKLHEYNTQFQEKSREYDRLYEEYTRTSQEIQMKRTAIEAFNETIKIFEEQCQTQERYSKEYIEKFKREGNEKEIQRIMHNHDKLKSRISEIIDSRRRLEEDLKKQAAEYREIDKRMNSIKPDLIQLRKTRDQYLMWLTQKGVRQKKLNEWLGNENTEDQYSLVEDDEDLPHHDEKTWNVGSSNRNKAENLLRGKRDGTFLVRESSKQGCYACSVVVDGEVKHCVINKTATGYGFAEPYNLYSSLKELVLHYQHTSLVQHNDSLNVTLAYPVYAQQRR
Test [2] concerns the target T1, mTOR (Homo sapiens (Human), UniProt P42345). The experiment in a line: biochemical.
Test [3] deals with PI3-K (phosphorylation of AKT at serine 473) in BT20 cells. The experiment in a line: PI3-Kα cellular assay (phospho-AKT Ser473 ELISA in BT20 cells).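 Further: lysates read by ELISA with TMB colour at 450 nm, cells given 0.5% DMSO vehicle serve as positive control and cell-free wells as negative control, duplicate wells per concentration.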 The following applies: Homo sapiens, BT-20, 1 h.
Test [4] addresses T1, mTOR.
The mark [5] stands for this setting: read-out: S473 pAKT 10% FBS IC50 (μM).
[6] abbreviates: read-out: S473 pAKT 0.5% FBS IC50 (μM).

Read-outs that look alike come from different tables or passages of the source.

T1 sequence (P42345 2156-2469): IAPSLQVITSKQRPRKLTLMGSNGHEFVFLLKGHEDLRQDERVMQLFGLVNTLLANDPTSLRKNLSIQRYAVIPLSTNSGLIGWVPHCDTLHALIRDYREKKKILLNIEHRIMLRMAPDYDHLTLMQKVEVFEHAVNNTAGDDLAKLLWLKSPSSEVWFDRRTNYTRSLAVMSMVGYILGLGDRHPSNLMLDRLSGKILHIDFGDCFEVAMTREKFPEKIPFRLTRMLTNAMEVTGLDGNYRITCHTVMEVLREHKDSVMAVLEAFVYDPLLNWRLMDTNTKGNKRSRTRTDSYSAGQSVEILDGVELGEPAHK

One may read the Ki as a dissociation constant, usually derived from enzyme kinetics or from competition with a known ligand. One may read the IC50 as the concentration that inhibits the measured activity by half. As for `CNC(=O)N1CCC(n2c(=O)n(C)c3cnc4ccc(-c5cnc(OC)nc5)nc4c32)CC1` [Compound 186, 4-[8-(2-methoxypyrimidin-5-yl)-3-methyl-2-oxo-2,3-dihydro-1H-imidazo[4,5-c][1,5]naphthyridin-1-yl]-N-methylpiperidine-1-carboxamide], the figures for the inhibition constant (Ki) in test [1] and in test [2] were 2.49 nM and 3.06 nM, respectively. For the same compound, the IC50 in test [3] (setting [5]) amounted to 0.0681 µM.
Taken in the same sequence, the figures for `Cn1c(=O)n([C@H]2CC[C@H](O)CC2)c2c3nc(-c4cnn(CCO)c4)ccc3ncc21` [Compound 164, 1-(trans-4-hydroxycyclohexyl)-8-[1-(2-hydroxyethyl)-1H-pyrazol-4-yl]-3-methyl-1,3-dihydro-2H-imidazo[4,5-c][1,5]naphthyridin-2-one] were 16.2 nM, 14 nM and 0.448 µM.
Take `CC(=O)N1CCC(n2c(=O)n(C)c3cnc4ccc(-c5cnc6ccccc6c5)nc4c32)CC1` [Compound 120, 1-(1-acetylpiperidin-4-yl)-3-methyl-8-quinolin-3-yl-1,3-dihydro-2H-imidazo[4,5-c][1,5]naphthyridin-2-one]: the Ki in test [1] is 0.98 nM; in test [2], 5.41 nM. Also, in test [3] (setting [6]), the IC50 was 0.00459 µM.
Taken in the same sequence, the figures for `CN[C@H]1CC[C@H](n2c(=O)n(C)c3cnc4ccc(-c5cnc6ccccc6c5)nc4c32)CC1` [Compound 193, 3-methyl-1-[trans-4-(methylamino)cyclohexyl]-8-quinolin-3-yl-1,3-dihydro-2H-imidazo[4,5-c][1,5]naphthyridin-2-one] were 1.61 nM, 13.1 nM and 0.0404 µM.
Taken in the same sequence, the figures for `Cn1c(=O)n(C2CCN(C(=O)OCc3ccccc3)CC2)c2c3nc(-c4cnc5ccccc5c4)ccc3ncc21` [Compound 116, benzyl4-(3-methyl-2-oxo-8-quinolin-3-yl-2,3-dihydro-1H-imidazo[4,5-c][1,5]naphthyridin-1-yl)piperidine-1-carboxylate] were 2.91 nM, 6.53 nM and 0.0134 µM.
Regarding `CN(C)C(=O)CN1CCC(n2c(=O)n(C)c3cnc4ccc(-c5cnn(C)c5)nc4c32)CC1` [Compound 212, N,N-dimethyl-2-{4-[3-methyl-8-(1-methyl-1H-pyrazol-4-yl)-2-oxo-2,3-dihydro-1H-imidazo[4,5-c][1,5]naphthyridin-1-yl]piperidin-1-yl}acetamide], the inhibition constant (Ki) in test [1] is 14.7 nM; in test [2], 27.9 nM. Further, the 50% inhibitory concentration (IC50) in test [3] (setting [5]) worked out at 0.248 µM.
As for `Cc1ccc(-c2ccc3ncc4c(c3n2)n(C2CCNCC2)c(=O)n4C)cn1` [Compound 177, 3-methyl-8-(6-methyl-pyridin-3-yl)-1-piperidin-4-yl-1,3-dihydro-1,3,5,9-tetraaza-cyclopenta[a]naphthalen-2-one], the results for the Ki in test [1] and in test [2] were 2.45 nM and 7.21 nM, respectively. Moreover, the IC50 in test [3] (setting [5]) came to 0.101 µM.
As for `CN(C)c1ccc(-c2ccc3ncc4c(c3n2)n([C@H]2CC[C@H](O)CC2)c(=O)n4C)cn1` [Compound 175, 8-[6-(dimethylamino)pyridin-3-yl]-1-(trans-4-hydroxycyclohexyl)-3-methyl-1,3-dihydro-2H-imidazo[4,5-c][1,5]naphthyridin-2-one], the values for the inhibition constant Ki in test [1] and in test [2] were 0.666 nM and 1.8 nM, respectively. Also, the IC50 in test [3] (setting [5]) amounted to 0.00526 µM.
Taken in the same sequence, the figures for `CNC(=O)N1CCC(n2c(=O)n(C)c3cnc4ccc(-c5ccc(C)nc5)nc4c32)CC1` [Compound 181, N-methyl-4-[3-methyl-8-(6-methylpyridin-3-yl)-2-oxo-2,3-dihydro-1H-imidazo[4,5-c][1,5]naphthyridin-1-yl]piperidine-1-carboxamide] were 3.27 nM, 1.06 nM and 0.0594 µM.
As for `CC(=O)N1CCC(n2c(=O)n(C)c3cnc4ccc(-c5cccc6ncccc56)nc4c32)CC1` [Compound 249, 1-(1-acetylpiperidin-4-yl)-3-methyl-8-quinolin-5-yl-1,3-dihydro-2H-imidazo[4,5-c][1,5]naphthyridin-2-one], the Ki in test [1] is 4.51 nM; in test [2], 442 nM. Also, the IC50 in test [3] (setting [5]) is 0.194 µM.
On to `Cn1c(=O)n(-c2ccc(C(C)(C)C#N)cc2)c2c3nc(-c4cnc5ccccc5c4)ccc3ncc21` [Compound 102, 2-methyl-2-[4-(3-methyl-2-oxo-8-quinolin-3-yl-2,3-dihydro-1H-imidazo[4,5-c]-1,5-naphthyridin-1-yl)phenyl]propanenitrile], for which the Ki in test [1] came out at 0.76 nM; in test [2], 3.01 nM. The IC50 in test [3] (setting [6]) came to 0.00354 µM.
With `Cn1c(=O)n(C2CCNCC2)c2c3nc(-c4cnc5ccccc5c4)ccc3ncc21` [Compound 118, 3-methyl-1-piperidin-4-yl-8-quinolin-3-yl-1,3-dihydro-2H-imidazo[4,5-c][1,5]naphthyridin-2-one], the Ki in test [1] stood at 2.08 nM; in test [2] it was 13.2 nM.
As to `CN(C)CC(=O)N1CCC(n2c(=O)n(C)c3cnc4ccc(-c5cnc6ccccc6c5)nc4c32)CC1` [Compound 126, 1-[1-(N,N-dimethylglycyl)piperidin-4-yl]-3-methyl-8-quinolin-3-yl-1,3-dihydro-2H-imidazo[4,5-c][1,5]naphthyridin-2-one], in test [1], the “PI3Ka Ki” value was 2.55 nM. The compound further gave a Ki in test [4] of 3.42 nM. In test [3] (setting [6]), the 50% inhibitory concentration (IC50) was 0.018 µM.
As to `CC(=O)N1CCC(n2c(=O)n(C)c3cnc4ccc(-c5ccc(N(C)C)nc5)nc4c32)CC1` [Compound 195, 1-(1-acetylpiperidin-4-yl)-8-[6-(dimethylamino)pyridin-3-yl]-3-methyl-1,3-dihydro-2H-imidazo[4,5-c][1,5]naphthyridin-2-one], the “PI3Ka Ki” value in test [1] is 0.391 nM. In addition, the Ki in test [4] was 1.72 nM. The IC50 in test [3] (setting [5]) was 0.0172 µM.
As for `Cn1cc(-c2ccc3ncc4c(c3n2)n(-c2ccc(C(C)(C)C#N)cc2)c(=O)n4C)cn1` [Compound 114, 2-Methyl-2-{4-[3-methyl-8-(1-methyl-1H-pyrazol-4-yl)-2-oxo-2,3-dihydro-1,3,5,9-tetraaza-cyclopenta[a]naphthalen-1-yl]-phenyl}-propionitrile], the “PI3Ka Ki” value in test [1] was 72.3 nM. Further, the Ki in test [4] was found to be 40.2 nM. Further, in test [3] (setting [6]), the 50% inhibitory concentration (IC50) was 0.116 µM.
Taken in the same sequence, the figures for `COc1ncc(-c2ccc3ncc4[nH]c(=O)n(-c5ccc(C(C)(C)C#N)cc5)c4c3n2)cn1` [Compound 111, 2-(4-(8-(2-methoxypyrimidin-5-yl)-2-oxo-2,3-dihydroimidazo[4,5-c][1,5]naphthyridin-1-yl)phenyl)-2-methylpropanenitrile] were 11.4 nM, 1.54 nM and 0.0439 µM.
Taken in the same sequence, the figures for `CCC(=O)N1CCC(n2c(=O)n(C)c3cnc4ccc(-c5cnc6ccccc6c5)nc4c32)CC1` [Compound 121, 3-methyl-1-(1-propionylpiperidin-4-yl)-8-quinolin-3-yl-1,3-dihydro-2H-imidazo[4,5-c][1,5]naphthyridin-2-one] were 0.539 nM, 7.9 nM and 0.00786 µM.
For `CN(C)c1ccc(-c2ccc3ncc4c(c3n2)n(-c2ccc(C(C)(C)C#N)cc2)c(=O)n4C)cn1` [Compound 108, 2-(4-(8-(6-(dimethylamino)pyridin-3-yl)-3-methyl-2-oxo-2,3-dihydroimidazo[4,5-c][1,5]naphthyridin-1-yl)phenyl)-2-methylpropanenitrile] the same measures were 4.45 nM, 4.67 nM and 0.0309 µM.
